The values below come from publication PMC11923102 (Nature Communications, 2025).

Numbering of substitutions follows the chain as printed. Like-named read-outs stand apart in the source and are kept apart here.

Broadly, the EC50 is the midpoint of the concentration-response curve. Higher therefore signals a need for much substance. Usually IC50 stands for the point on the concentration scale where inhibition reaches its midpoint.

Holding throughout (type): cell-based
Experiment [1] addresses T1, TRPV3 (hTRPV3) (Homo sapiens, UniProt Q8NET8).
T1 sequence (Q8NET8 1-790): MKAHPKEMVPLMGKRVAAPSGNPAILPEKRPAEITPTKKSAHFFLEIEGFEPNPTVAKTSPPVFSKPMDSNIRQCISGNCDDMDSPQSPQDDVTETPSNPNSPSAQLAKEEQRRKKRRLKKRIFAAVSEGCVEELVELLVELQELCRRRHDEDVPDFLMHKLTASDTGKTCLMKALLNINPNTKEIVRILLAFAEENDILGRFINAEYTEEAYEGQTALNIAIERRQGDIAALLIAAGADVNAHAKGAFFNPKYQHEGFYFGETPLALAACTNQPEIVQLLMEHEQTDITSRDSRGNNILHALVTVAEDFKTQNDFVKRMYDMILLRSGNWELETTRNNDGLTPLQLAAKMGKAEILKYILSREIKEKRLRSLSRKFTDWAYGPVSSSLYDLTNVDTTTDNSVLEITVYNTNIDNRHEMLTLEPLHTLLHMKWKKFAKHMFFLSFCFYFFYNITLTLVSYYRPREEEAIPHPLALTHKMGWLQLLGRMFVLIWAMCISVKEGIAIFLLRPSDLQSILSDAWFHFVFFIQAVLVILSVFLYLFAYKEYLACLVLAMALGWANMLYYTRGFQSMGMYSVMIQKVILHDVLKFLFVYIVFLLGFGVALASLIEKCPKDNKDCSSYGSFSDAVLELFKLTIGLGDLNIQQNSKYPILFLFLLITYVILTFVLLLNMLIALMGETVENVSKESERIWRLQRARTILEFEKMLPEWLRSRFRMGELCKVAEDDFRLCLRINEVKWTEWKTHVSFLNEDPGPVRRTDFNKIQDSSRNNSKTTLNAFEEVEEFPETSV
The experiment is described as follows: cryo-EM structure.

Experiment [2] concerns the target T2, mTRPV3 (Mus musculus, UniProt Q8K424).
T2 sequence (Q8K424 1-791): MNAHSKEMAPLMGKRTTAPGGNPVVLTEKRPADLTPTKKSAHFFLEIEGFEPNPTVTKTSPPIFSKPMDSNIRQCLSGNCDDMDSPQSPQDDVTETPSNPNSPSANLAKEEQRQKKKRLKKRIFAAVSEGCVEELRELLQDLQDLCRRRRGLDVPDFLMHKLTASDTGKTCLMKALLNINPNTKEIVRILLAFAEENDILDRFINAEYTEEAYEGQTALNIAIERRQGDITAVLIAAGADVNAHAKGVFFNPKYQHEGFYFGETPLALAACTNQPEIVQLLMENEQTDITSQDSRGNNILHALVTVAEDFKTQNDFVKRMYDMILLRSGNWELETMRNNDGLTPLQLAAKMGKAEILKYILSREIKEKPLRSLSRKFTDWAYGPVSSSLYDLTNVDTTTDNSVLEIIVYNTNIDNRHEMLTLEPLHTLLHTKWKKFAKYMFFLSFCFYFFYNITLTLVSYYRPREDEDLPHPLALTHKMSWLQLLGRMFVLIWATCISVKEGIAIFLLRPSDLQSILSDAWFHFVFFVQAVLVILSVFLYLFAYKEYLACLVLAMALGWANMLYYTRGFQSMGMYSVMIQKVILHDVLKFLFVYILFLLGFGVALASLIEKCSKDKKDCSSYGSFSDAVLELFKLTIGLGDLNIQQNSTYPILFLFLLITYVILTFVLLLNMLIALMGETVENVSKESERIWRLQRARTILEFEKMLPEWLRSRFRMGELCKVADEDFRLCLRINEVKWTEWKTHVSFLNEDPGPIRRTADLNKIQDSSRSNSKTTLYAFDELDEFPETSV
The experiment is described as follows: whole-cell patch clamp, inhibition of citronellal-evoked currents.

The target in experiment [3] is T1, TRPV3 (hTRPV3). The experiment is described as follows: cryo-EM structure. This is another data set of the same source.
The target of experiment [4] is T3, TRPV3 (hTRPV3) (Homo sapiens, UniProt Q8NET8, Q695L).
T3 sequence (Q8NET8 1-790 Q695L): T1 sequence (Q8NET8 1-790) with Q695L
As to the kind of experiment: whole-cell patch clamp. Background: The patch-clamp technique gives a direct electrical read-out from membranes.

Regarding `CC(C)=CCC/C(C)=C/C=O` [citral], the EC50 in experiment [1] was 6.61 ± 0.93 mM. In turn, `CCCCOc1ccc(C(=O)CCN2CCCCC2)cc1` [dyclonine] yielded an IC50 in experiment [2] of 0.00073 ± 5e-05 mM.

On to `C=CC(C)(O)CCC=C(C)C` (stereo not shown) [linalool], for which the values for the concentration giving a half-maximal response (EC50) in experiment [3] and in experiment [4] were 6.19 ± 0.6 mM and 0.42 ± 0.02 mM, respectively.
